According to patent US20230382923A1, “FUSED TETRACYCLIC QUINAZOLINE DERIVATIVES AS INHIBITORS OF ERBB2” (EnLiven Therapeutics, Inc., priority 2021, published 2023):

What was measured:
[1] = molecular target: phosphorylated EGFR (pEGFR) (Homo sapiens (Human), UniProt P00533); assay: Detection of phosphorylated EGFR (pEGFR) by AlphaLISA in A431 cells; assay type: cell-based; conditions: A431 cells (10% FBS), 4 hours incubation, EGF 30 ng/mL for 10 minutes
In short: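 A431 cells in 10% FBS exposed to compound for 4 h at 37 °C, then stimulated 10 min with 30 ng/mL EGF. Lysates assayed for phospho-EGFR by AlphaLISA. % inhibition relative to DMSO and staurosporine controls; IC50 from four-parameter curve fit.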

[2] = molecular target: phosphorylated ERBB2 (pERBB2) (Homo sapiens (Human), UniProt P04626); assay: Detection of phosphorylated ERBB2 (pERBB2) by ELISA in BT-474 cells; assay type: cell-based; conditions: four hours incubation with compound
Sequence of phosphorylated ERBB2 (pERBB2) (P04626 23-1255): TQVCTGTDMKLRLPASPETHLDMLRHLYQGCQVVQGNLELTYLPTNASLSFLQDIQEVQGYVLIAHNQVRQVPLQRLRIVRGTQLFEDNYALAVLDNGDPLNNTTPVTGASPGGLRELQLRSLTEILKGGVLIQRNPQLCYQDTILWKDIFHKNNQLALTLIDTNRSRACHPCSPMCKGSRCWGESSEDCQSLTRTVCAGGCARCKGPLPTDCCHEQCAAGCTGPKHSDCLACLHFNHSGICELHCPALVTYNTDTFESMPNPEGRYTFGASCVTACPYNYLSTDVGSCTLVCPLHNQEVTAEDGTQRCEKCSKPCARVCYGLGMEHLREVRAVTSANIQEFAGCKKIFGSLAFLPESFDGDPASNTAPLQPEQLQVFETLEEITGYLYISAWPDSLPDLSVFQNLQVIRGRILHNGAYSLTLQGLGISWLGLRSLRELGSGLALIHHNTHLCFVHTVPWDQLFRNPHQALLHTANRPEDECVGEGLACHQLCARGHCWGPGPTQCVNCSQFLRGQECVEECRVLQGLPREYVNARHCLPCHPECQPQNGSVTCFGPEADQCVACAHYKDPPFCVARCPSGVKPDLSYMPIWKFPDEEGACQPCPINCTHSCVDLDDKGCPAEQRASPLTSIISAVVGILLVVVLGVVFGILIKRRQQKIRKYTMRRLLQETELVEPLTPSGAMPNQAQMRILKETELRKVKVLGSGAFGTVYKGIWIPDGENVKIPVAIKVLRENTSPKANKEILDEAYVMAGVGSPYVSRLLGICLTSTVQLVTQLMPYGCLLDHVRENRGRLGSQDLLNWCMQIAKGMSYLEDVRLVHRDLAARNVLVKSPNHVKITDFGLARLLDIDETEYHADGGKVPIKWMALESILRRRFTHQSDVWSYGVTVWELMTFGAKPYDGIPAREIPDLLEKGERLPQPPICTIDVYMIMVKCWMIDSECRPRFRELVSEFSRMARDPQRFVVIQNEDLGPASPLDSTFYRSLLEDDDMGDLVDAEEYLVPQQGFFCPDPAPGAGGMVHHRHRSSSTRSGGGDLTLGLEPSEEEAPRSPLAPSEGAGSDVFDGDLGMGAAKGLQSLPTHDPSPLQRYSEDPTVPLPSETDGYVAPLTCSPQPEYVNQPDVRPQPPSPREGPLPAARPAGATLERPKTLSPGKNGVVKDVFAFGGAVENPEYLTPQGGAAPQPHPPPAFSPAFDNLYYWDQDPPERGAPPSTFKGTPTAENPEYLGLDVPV
In short: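 BT-474 cells were exposed to serially diluted compounds for 4 h at 37 °C, then lysed. Phospho-ERBB2 in lysates was captured by ELISA and detected with an HRP anti-phosphotyrosine antibody and TMB.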

[3] = system: Ba/F3 ERBB2 YVMA; assay: Cell viability assay (CellTiter Glo, 72 hours); assay type: cell-based, mouse; conditions: Mus musculus, BaF3, 72 h, read-out: Ba/F3 ERBB2 YVMA, IC50, nM
Description: Cells were treated with compounds, and cell viability was measured as a metric of kinase inhibition.
BT-474, A431, MDA-MB-175VII, NCI-H1781, MCF7, and Ba/F3 cell lines were tested. The Ba/F3 cell line is IL-3-dependent mouse cell line derived from the C3H mouse strain. Ba/F3 cell lines were engineered to express human ERBB2 or EGFR kinases, rendering the cells IL-3 independent. The lines were generated via retroviral transduction utilizing a Moloney murine leukemia virus (MMLV) promoter, and constructs are stably integrated into the cell genome. The sequences of the ERBB2 and EGFR genes used were NCBI Reference Sequences NM_004448.3 and NM_005228.3, respectively.
BT-474, A431, MDA-MB-175VII, NCI-H1781 and MCF7 cells were grown in the appropriate growth medium as described in Table B2 below, and harvested at 50-80% confluence. BT-474, A431, MDA-MB-175VII, NCI-H1781 and MCF7 cells were counted and seeded at 2,000 or 1,500 cells per well in 384-well tissue culture plates (see Table B2). Similarly, Ba/F3 cell lines engineered to express EGFR, ERBB2, or ERBB2 mutants were grown, harvested, counted and seeded at 3000 cells per well in 96-well plates. A subset of wells contained media only (low control, “LC”).
Table B1 provides the growth media and number of cells seeded per well for the each cell line.
Compounds were dissolved in DMSO and serially diluted. Serially-diluted compound or a DMSO only control (high control, “HC”) was added to the plated cells in each well. Compounds were tested at concentrations of about 10 μM to 0.51 nM, using three-fold dilutions. The final proportion of DMSO never exceeded 0.1%.
Plates were placed in a 37° C., 5% CO2 incubator for 72 hours. Plates were then removed from the incubator and equilibrated for 15 minutes at room temperature. 40 μl of CellTiter Glo reagent (Promega) was added to measure the relative level of metabolically active cells by quantifying intracellular ATP concentrations. Plates were incubated for 30 minutes at room temperature, and luminescence was measured. Percent viability was normalized to a vehicle control only using the following formula: % viability=100×(LumSample−LumLC)/(LumHC−LumLC). Graphical curves were fitted using a nonlinear regression model with a sigmoidal dose response.

Sequence of phosphorylated EGFR (pEGFR) (P00533 25-1210): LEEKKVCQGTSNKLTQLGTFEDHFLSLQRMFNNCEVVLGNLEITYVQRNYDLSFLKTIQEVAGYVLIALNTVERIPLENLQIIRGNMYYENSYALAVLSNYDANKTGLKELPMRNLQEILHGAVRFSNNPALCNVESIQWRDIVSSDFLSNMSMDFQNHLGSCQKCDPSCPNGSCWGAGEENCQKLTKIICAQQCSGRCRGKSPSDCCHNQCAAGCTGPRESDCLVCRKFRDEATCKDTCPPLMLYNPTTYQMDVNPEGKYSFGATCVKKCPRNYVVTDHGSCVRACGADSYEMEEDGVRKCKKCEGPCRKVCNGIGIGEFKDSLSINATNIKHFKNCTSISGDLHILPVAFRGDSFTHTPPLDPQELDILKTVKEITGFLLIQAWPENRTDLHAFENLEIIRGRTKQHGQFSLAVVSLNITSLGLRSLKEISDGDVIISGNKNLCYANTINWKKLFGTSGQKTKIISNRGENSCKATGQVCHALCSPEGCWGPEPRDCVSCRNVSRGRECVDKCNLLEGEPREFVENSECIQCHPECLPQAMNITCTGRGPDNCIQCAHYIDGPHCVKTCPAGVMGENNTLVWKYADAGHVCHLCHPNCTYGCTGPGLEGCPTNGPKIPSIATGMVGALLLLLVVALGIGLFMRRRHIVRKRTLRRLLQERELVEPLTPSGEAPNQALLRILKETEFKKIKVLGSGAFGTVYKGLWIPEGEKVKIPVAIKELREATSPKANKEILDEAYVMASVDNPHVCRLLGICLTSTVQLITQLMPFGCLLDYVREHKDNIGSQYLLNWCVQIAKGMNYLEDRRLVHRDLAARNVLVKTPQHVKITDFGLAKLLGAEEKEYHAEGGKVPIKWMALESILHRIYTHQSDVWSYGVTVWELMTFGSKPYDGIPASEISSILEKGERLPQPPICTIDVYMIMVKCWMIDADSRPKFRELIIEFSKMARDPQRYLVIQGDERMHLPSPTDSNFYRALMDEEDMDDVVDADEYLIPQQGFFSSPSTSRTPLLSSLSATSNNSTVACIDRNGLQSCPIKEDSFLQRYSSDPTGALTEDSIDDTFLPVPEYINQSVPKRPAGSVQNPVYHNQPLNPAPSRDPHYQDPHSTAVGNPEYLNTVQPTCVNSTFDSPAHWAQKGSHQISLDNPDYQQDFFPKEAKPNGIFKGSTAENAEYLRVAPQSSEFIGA

SMILES | IC50 [1] | IC50 [2] | IC50 [3]
C=CC(=O)N1CCN2CC1COc1cc3ncnc(Nc4ccc(Oc5ccn6ncnc6c5)c(C)c4)c3nc12 (stereo in doubt) [Compound 1, 1-((10S)-4-((4-([1,2,4]triazolo[1,5-a]pyridin-7-yloxy)-3-methylphenyl)amino)-7,8,10,11-tetrahydro-9H-6,10-methanopyrimido[4′,5′:5,6]pyrido[3,2-b][1,4,7]oxadiazonin-9-yl)prop-2-en-1-one] | 450 nM | 9.77 nM | 7.77 nM
Cc1cc(Nc2ncnc3cc4c(nc23)N2CCN(C(=O)/C=C/CN3CCC3)C(CO4)C2)ccc1Oc1ccn2ncnc2c1 (stereo in doubt) [Compound 26, (E)-1-((10S)-4-((4-([1,2,4]triazolo[1,5-a]pyridin-7-yloxy)-3-methylphenyl)amino)-7,8,10,11-tetrahydro-9H-6,10-methanopyrimido[4′,5′:5,6]pyrido[3,2-b][1,4,7]oxadiazonin-9-yl)-4-(azetidin-1-yl)but-2-en-1-one] | > 10000 nM | 41.1 nM | 24.9 nM
C=CC(=O)N1CCN2CC1COc1cc3ncnc(Nc4ccc(Oc5ccc6c(c5)ncn6C)c(C)c4)c3cc12 (stereo in doubt) [Compound 3, 1-((10S)-4-((3-methyl-4-((1-methyl-1H-benzo[d]imidazol-5-yl)oxy)phenyl)amino)-7,8,10,11-tetrahydro-9H-6,10-methano[1,4,7]oxadiazonino[3,2-g]quinazolin-9-yl)prop-2-en-1-one] | 1470 nM | 28.3 nM | 18 nM
C=CC(=O)N1CCN2CC1COc1cc3ncnc(Nc4ccc(Oc5ccn6ncnc6c5)c(C)c4)c3nc12 (stereo in doubt) [Compound 2, 1-((10R)-4-((4-([1,2,4]triazolo[1,5-a]pyridin-7-yloxy)-3-methylphenyl)amino)-7,8,10,11-tetrahydro-9H-6,10-methanopyrimido[4′,5′:5,6]pyrido[3,2-b][1,4,7]oxadiazonin-9-yl)prop-2-en-1-one] | > 10000 nM | 422 nM | 116 nM
